From US11415579B2, “Assay for measuring a rate of reaction between a target and a ligand candidate” (Imperial College Innovations Ltd., priority 2016, dated 2022) come the findings set out here.

A short description of assay [1]: Kinetic thiol consumption assay with model thiol glutathione. It is filed as physicochemical. Further details: Rate constant with glutathione (k(GSH)): unit not given here. Conditions: for Rate constant with glutathione (k(GSH)): 500 μM ligand, 5 μM thiol, phosphate buffer pH 8; for Rate constant with Glutathione: Protein: Glutathione, cysteine position NA, in h-1. In short, it runs like this:
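First, 5 μM glutathione in degassed phosphate buffer (pH 8) receives immobilized TCEP beads (2% v/v). Then acrylamide is added and plates incubate 1 h at room temperature. Finally, fluorescence (380/470 nm) is normalized and fitted to first-order decay for rate constants.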

Assay [2] has as its target T1, human cyclin-dependent kinase 2 (Cdk2) (Homo sapiens, UniProt P24941).
T1 construct: poly-histidine; made in house; host or cells: E. coli
Description: Kinetic thiol consumption assay with wild type Cdk2 (C177). The format is binding. Further details: key to Rate enhancement, Cdk2 WT: k(Cdk2) divided by k(model thiol); Rate constant with Cdk2 (k(Cdk2)): unit not given here. Conditions: for Rate constant with Cdk2 (k(Cdk2)): 500 μM ligand, 5 μM thiol, phosphate buffer pH 8; for Rate enhancement, Cdk2 WT: no additional mutations; for Rate constant with Cdk2 WT: Protein: Cdk2, cysteine position WT, in h^-1; for k(Cdk2)/k(Cdk2_mut) rate enhancement: model thiol Cdk2[C177A, F80C, K278C]; for k(Cdk2)/k(GSH) rate enhancement: model thiol glutathione. In short, it runs like this:
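His-tagged human Cdk2 (single surface cysteine C177), expressed in E. coli, or a model thiol at 5 μM in degassed phosphate buffer pH 8 was pre-treated with immobilized TCEP beads (2% v/v) before acrylamide addition. Fluorescence (ex/em 380/470 nm) was read after 1 h at room temperature, normalized to DMSO/thiol-only control and plotted versus time.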

In assay [3] the target is T2, Cdk2[C177A, F80C, K278C] (Homo sapiens, UniProt P24941, C177A/F80C/K278C).
T2 construct: poly-histidine; made in house; host or cells: E. coli
Kind of assay: Kinetic thiol consumption assay with mutant Cdk2 as model thiol. Conditions: 500 μM ligand, 5 μM thiol, phosphate buffer pH 8. Further details: unit not given here. The format is binding. A digest of the protocol:
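First-order rate constants were derived by exponential-decay fitting of DMSO/thiol-normalized fluorescence (380/470 nm) over time at room temperature. Thiol was 5 μM E. coli-expressed His-tagged Cdk2 mutant C177A/F80C/K278C in degassed pH 8 phosphate buffer containing 2% v/v TCEP beads.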

The target in assay [4] is T3, Cdk2(C177A, F80C) (Homo sapiens, UniProt P24941, C177A/F80C).
T3 construct: poly-histidine; made in house; host or cells: E. coli
Kind of assay: Kinetic thiol consumption assay with Cdk2 mutant F80C, incl. kobs versus concentration (Kd, k2). Details: key to Rate enhancement, Cdk2 F80C: Cdk2 rate constant divided by model-thiol rate constant. Conditions: Cdk2 F80C, additional mutation C177A. It is filed as binding. A digest of the protocol: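 His-tagged Cdk2(C177A/F80C) from E. coli or model thiol, 5 μM in degassed phosphate buffer pH 8 with TCEP beads, reacted with acrylamide ligands; fluorescence (ex/em 380/470 nm) normalized to DMSO control and fitted to first-order decay for kobs. Kd and k2 obtained from hyperbolic fit of kobs versus ligand concentration.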

The target in assay [5] is T4, Cdk2(H71C) (C177A) (Homo sapiens, UniProt P24941, C177A/H71C).
T4 construct: poly-histidine; made in house; host or cells: E. coli
Kind of assay: Kinetic thiol consumption assay with Cdk2 mutant H71C. The format is binding. Details: key to Rate enhancement, Cdk2 H71C: rate constant with Cdk2 ÷ rate constant with model thiol (fold). Conditions: additional mutation C177A. A digest of the protocol:
(§1)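 Thiol consumption was monitored kinetically using 5 μM Cdk2 (C177A plus one introduced cysteine) in degassed phosphate buffer at pH 8 with TCEP beads. Plates were kept 1 h at room temperature before fluorescence reading, and rate constants came from exponential decay fitting.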

The target of assay [6] is T5, Cdk2(S276C) (C177A) (Homo sapiens, UniProt P24941, C177A/S276C).
T5 construct: poly-histidine; made in house; host or cells: E. coli
Kind of assay: Kinetic thiol consumption assay with Cdk2 mutant S276C. It is filed as binding. Conditions: additional mutation C177A; for Rate constant with Cdk2 S276C: Protein: Cdk2, cysteine position S276C, in h^-1. Further details: key to Rate enhancement, Cdk2 S276C: rate constant with Cdk2 ÷ rate constant with model thiol (fold). A digest of the protocol: as §1

Assay [7] concerns the target T6, Cdk2(N272C) (C177A) (Homo sapiens, UniProt P24941, C177A/N272C).
T6 construct: poly-histidine; made in house; host or cells: E. coli
Description: Kinetic thiol consumption assay with Cdk2 mutant N272C. The format is binding. Further details: key to Rate enhancement, Cdk2 N272: rate constant with Cdk2 ÷ rate constant with model thiol (fold). Conditions: for Rate enhancement, Cdk2 N272: Cdk2 N272, additional mutation C177A; for Rate constant with Cdk2 N272C: Protein: Cdk2, cysteine position N272C, additional mutation C177A, in h^-1. In short, it runs like this:
as §1

The target of assay [8] is T7, Cdk2(T182C) (C177A) (Homo sapiens, UniProt P24941, C177A/T182C).
T7 construct: poly-histidine; made in house; host or cells: E. coli
Description: Kinetic thiol consumption assay with Cdk2 mutant T182C. The format is binding. Details: key to Rate enhancement, Cdk2 T182C: rate constant with Cdk2 ÷ rate constant with model thiol (fold). Conditions: additional mutation C177A; for Rate constant with Cdk2 T182C: Protein: Cdk2, cysteine position T182C, in h^-1. In short, it runs like this:
as §1

In assay [9] the target is T8, Cdk2(R122C) (C177A) (Homo sapiens, UniProt P24941, C177A/R122C).
T8 construct: poly-histidine; made in house; host or cells: E. coli
Description: Kinetic thiol consumption assay with Cdk2 mutant R122C. Further details: key to Rate enhancement, Cdk2 R122C: rate constant with Cdk2 ÷ rate constant with model thiol (fold). Conditions: additional mutation C177A; for Rate constant with Cdk2 R122C: Protein: Cdk2, cysteine position R122C, in h-1. The format is binding. In short, it runs like this: as §1

Assay [10] concerns the target T9, Cdk2(S181C) (C177A) (Homo sapiens, UniProt P24941, C177A/S181C).
T9 construct: poly-histidine; made in house; host or cells: E. coli
Kind of assay: Kinetic thiol consumption assay with Cdk2 mutant S181C. The format is binding. Further details: key to Rate enhancement, Cdk2 S181C: rate constant with Cdk2 ÷ rate constant with model thiol (fold). Conditions: additional mutation C177A; for Rate constant with Cdk2 S181C: Protein: Cdk2, cysteine position S181C, in h^-1. A digest of the protocol:
as §1

Regarding `C=CC(=O)NCC1CN(C2CC2)CCO1` (centres unmarked) [CA-038], in [1], the “Rate constant with glutathione (k(GSH))” value was 0.0065 and the “Rate constant with Glutathione” value is listed as 0.01131. In addition, in [2], the “Rate constant with Cdk2 (k(Cdk2))” value is recorded as 0.00332; the “Rate enhancement, Cdk2 WT” value came to 0.5218; the “Rate constant with Cdk2 WT” value is given as 0.005901; the “k(Cdk2)/k(Cdk2_mut) rate enhancement” value was 0.9623. The “k(Cdk2)/k(GSH) rate enhancement” value in [2] turned out to be 0.5101. In [3], the “Rate constant with Cdk2[C177A, F80C, K278C] (k(Cdk2_mut))” value worked out at 0.00345. Also, in assay [4], the “Rate enhancement, Cdk2 F80C” value was 0. For the same molecule, the “Rate enhancement, Cdk2 H71C” value in assay [5] was determined as 0.8254. In assay [5] (Protein: Cdk2, cysteine position H71C, in h^-1), the “Rate constant with Cdk2 H71C” value is listed as 0.009335. In assay [6], the “Rate enhancement, Cdk2 S276C” value amounted to 0.5828 and the “Rate constant with Cdk2 S276C” value was 0.006591. Also, in [7], the “Rate enhancement, Cdk2 N272” value turned out to be 0.592 and the “Rate constant with Cdk2 N272C” value is given as 0.006696. For the same molecule, in assay [8], the “Rate enhancement, Cdk2 T182C” value was determined as 1.744 and the “Rate constant with Cdk2 T182C” value is recorded as 0.01973. For the same molecule, in assay [9], the “Rate enhancement, Cdk2 R122C” value is recorded as 0.3691 and the “Rate constant with Cdk2 R122C” value is recorded as 0.004175. For the same molecule, in assay [10], the “Rate enhancement, Cdk2 S181C” value is listed as 0.4715 and the “Rate constant with Cdk2 S181C” value turned out to be 0.005333.
For the molecule `C=CC(=O)N1CCC2(CC1)CC2C(=O)OC` (centres unmarked) [CA-039], in assay [1], the “Rate constant with glutathione (k(GSH))” value amounted to 0.00141 and the “Rate constant with Glutathione” value was determined as 0.002035. In addition, in assay [2], the “Rate constant with Cdk2 (k(Cdk2))” value is reported as 0.00187; the “Rate enhancement, Cdk2 WT” value stood at 0.2802; the “Rate constant with Cdk2 WT” value is on record as 0.0005702; the “k(Cdk2)/k(Cdk2_mut) rate enhancement” value was 0.6155. Moreover, the “k(Cdk2)/k(GSH) rate enhancement” value in assay [2] turned out to be 1.327. Moreover, the “Rate constant with Cdk2[C177A, F80C, K278C] (k(Cdk2_mut))” value in [3] worked out at 0.00304. In [4], the “Rate enhancement, Cdk2 F80C” value is listed as 0. In [5], the “Rate enhancement, Cdk2 H71C” value was 0. Also, in assay [6], the “Rate enhancement, Cdk2 S276C” value worked out at 1.14 and the “Rate constant with Cdk2 S276C” value was found to be 0.002319. In assay [7], the “Rate enhancement, Cdk2 N272” value was found to be 0.7499 and the “Rate constant with Cdk2 N272C” value turned out to be 0.001526. Further, in [8], the “Rate enhancement, Cdk2 T182C” value was found to be 1.425 and the “Rate constant with Cdk2 T182C” value was 0.0029. Besides, in assay [9], the “Rate enhancement, Cdk2 R122C” value came out at 0.8889 and the “Rate constant with Cdk2 R122C” value was 0.001809. Also, in assay [10], the “Rate enhancement, Cdk2 S181C” value was 0.6334 and the “Rate constant with Cdk2 S181C” value was 0.001289.
